US7977362B2, “Alpha-(N-benzenesulfonamido)cycloalkyl derivatives” (Bristol-Myers Squibb Company, priority 2009, dated 2011)

These compounds were tested on Aβ formation (γ-secretase) in H4 cells stably transfected to overexpress the HPLAP-APP fusion protein (assay: In vitro assay based on the inhibition of Aβ formation in cultured cells). Conditions: Homo sapiens, 18 h, H4 cells overexpressing HPLAP-APP, 18 hrs incubation at 37° C., Aβ in supernatant by time-resolved fluorescence; class symbols.
Type: cell-based, human
Protocol: Cultured human cell lines, such as HEK293 and H4 cells, which express APP and γ-secretase activity or transfected derivative cell lines that overexpress wild-type APP, mutant APP, or APP fusion proteins will secrete Aβ peptides into the culture media that can be quantified as previously outlined (Dovey, H. et al., J. Neurochem., 76:173-181 (2001)). The incubation of these cultured cells with γ-secretase inhibitors decreases the production of Aβ peptides. For instance, H4 cells stably transfected to overexpress the HPLAP-APP fusion protein described above were grown as above, detached, and adjusted to 2×10^5 cells/ml. 100 μl of the resulting suspension was then added to each well of a 96-well plate. After 4 hrs, the media was removed and replaced with 100 μl serum-free media containing various dilutions of the test compound. Plates were then incubated for 18 hrs at 37° C. and a 100 μl aliquot of the tissue culture supernatant was removed for determination of Aβ levels using time-resolved fluorescence of the homogenous sample as outlined above. Alternately, the other methods described above for Aβ determination could be used. The extent of Aβ inhibition was used to calculate the IC50 value for the test compound.
In the table, an inhibitory concentration (IC50) of less than or equal to 50 nM is represented by +++; between 50 nM and 500 nM by ++; between 500 nM and 5000 nM by +.

Row | Compound | IC50
1 | CC(C)(O)[C@@H]1CCCC[C@H]1N(Cc1ccc(-c2ncco2)cc1F)S(=O)(=O)c1ccc(Cl)cc1 [Compound 23, 4-Chloro-N-(2-fluoro-4-(oxazol-2-yl)benzyl)-N-((1R,2R)-2-(2-hydroxypropan-2-yl)cyclohexyl)benzenesulfonamide] | 500 to 5000 nM
2 | O=S(=O)(c1ccc(C(F)(F)F)nc1)N(Cc1cc(F)c(-c2ncon2)cc1F)[C@@H]1CCCC[C@H]1CO [Compound 26, N-(2,5-Difluoro-4-(1,2,4-oxadiazol-3-yl)benzyl)-N-((1R,2R)-2-(hydroxymethyl)cyclohexyl)-6-(trifluoromethyl)pyridine-3-sulfonamide] | ≤ 50 nM
3 | O=S(=O)(c1ccc(Cl)cc1)N(Cc1ccc(Br)cc1)C1CC2CCC1C2O (stereo not shown) [Compound 33, N-(4-Bromobenzyl)-N-(7-hydroxybicyclo[2.2.1]heptan-2-yl)-4-chlorobenzenesulfonamide] | 500 to 5000 nM

Further lines, results first:

Row | IC50 | Compound
4 | 500 to 5000 nM | O=S(=O)(c1ccc(Cl)cc1)N(Cc1ccc(-c2ncco2)cc1)C1CC2CCC1C2O (stereo not shown) [Compound 34, N-(4-(Oxazol-2-yl)benzyl)-N-(7-hydroxybicyclo[2.2.1]heptan-2-yl)-4-chlorobenzenesulfonamide]
5 | 500 to 5000 nM | O=S(=O)(c1ccc(Cl)cc1)N(Cc1ccc(-c2ncon2)cc1)C1(CO)CCCCC1 [Compound 37, N-(4-(1,2,4-Oxadiazol-3-yl)benzyl)-4-chloro-N-(1-(hydroxymethyl)cyclohexyl)benzenesulfonamide]

Same assay, conditions: Homo sapiens, 18 h, H4 cells overexpressing HPLAP-APP, 18 hrs incubation at 37° C., Aβ in supernatant by time-resolved fluorescence; numeric values

Row | IC50 | Compound
6 | 3240 nM | O=S(=O)(c1ccc(Cl)cc1)N(Cc1ccc(-c2ncon2)cc1)C1CC2CCC1C2O (stereo not shown) [Compound 35, N-(4-(1,2,4-Oxadiazol-3-yl)benzyl)-N-(7-hydroxybicyclo[2.2.1]heptan-2-yl)-4-chlorobenzenesulfonamide]
7 | 346 nM | O=S(=O)(c1ccc(Cl)cc1)N(Cc1ccc(-c2ncco2)cc1)C1(CO)CCCCC1 [Compound 36, 4-Chloro-N-(1-(hydroxymethyl)cyclohexyl)-N-(4-(oxazol-2-yl)benzyl)benzenesulfonamide]
